Reference: the NIST ThermoML archive (doi:10.1016/j.fluid.2004.09.013)

Conditions: for mass density: Fluid (supercritical or subcritical phases), Vibrating tube method; for vapor or sublimation pressure: Liquid

C=C(C)C [2-methylpropene]
Conditions | mass density [kg/m3]
273.23 K, 615 kPa | 619.2
273.23 K, 9987 kPa | 631.07
273.23 K, 15001 kPa | 636.64
273.23 K, 20001 kPa | 641.78
273.23 K, 25007 kPa | 646.58
273.23 K, 29992 kPa | 651.06
273.23 K, 34986 kPa | 655.29
273.23 K, 40007 kPa | 659.29
273.24 K, 5018 kPa | 625.04
278.24 K, 625 kPa | 613.32
278.24 K, 9983 kPa | 625.79
278.24 K, 29985 kPa | 646.57
278.25 K, 4992 kPa | 619.43
278.25 K, 14997 kPa | 631.6
278.25 K, 19994 kPa | 636.96
278.25 K, 24995 kPa | 641.93
278.25 K, 35001 kPa | 650.96
278.25 K, 39983 kPa | 655.07
283.26 K, 623 kPa | 607.34
283.26 K, 4980 kPa | 613.78
283.26 K, 10001 kPa | 620.49
283.26 K, 15002 kPa | 626.55
283.26 K, 19992 kPa | 632.11
283.26 K, 24993 kPa | 637.28
283.26 K, 29994 kPa | 642.09
283.26 K, 34999 kPa | 646.62
283.26 K, 39994 kPa | 650.87
288.27 K, 622 kPa | 601.26
288.27 K, 4986 kPa | 608.09
288.27 K, 9999 kPa | 615.12
288.27 K, 15002 kPa | 621.46
288.27 K, 20000 kPa | 627.26
288.27 K, 24990 kPa | 632.61
288.27 K, 30003 kPa | 637.6
288.27 K, 35005 kPa | 642.28
288.27 K, 40002 kPa | 646.66
293.28 K, 624 kPa | 595.08
293.28 K, 4999 kPa | 602.33
293.28 K, 9991 kPa | 609.69
293.28 K, 14989 kPa | 616.34
293.28 K, 19994 kPa | 622.38
293.28 K, 24993 kPa | 627.94
293.28 K, 30001 kPa | 633.11
293.28 K, 35003 kPa | 637.94
293.28 K, 39987 kPa | 642.44
298.3 K, 624 kPa | 588.78
298.3 K, 4988 kPa | 596.46
298.3 K, 9992 kPa | 604.23
298.3 K, 14991 kPa | 611.17
298.3 K, 20004 kPa | 617.49
298.3 K, 25009 kPa | 623.26
298.3 K, 30005 kPa | 628.61
298.3 K, 34998 kPa | 633.59
298.3 K, 40003 kPa | 638.26
303.3 K, 638 kPa | 582.38
303.3 K, 14996 kPa | 606.02
303.3 K, 19992 kPa | 612.59
303.3 K, 24991 kPa | 618.59
303.3 K, 34996 kPa | 629.29
303.3 K, 39999 kPa | 634.1
303.31 K, 4990 kPa | 590.52
303.31 K, 9994 kPa | 598.73
303.31 K, 29988 kPa | 624.13
308.31 K, 706 kPa | 575.94
308.32 K, 4988 kPa | 584.48
308.32 K, 9989 kPa | 593.14
308.32 K, 14992 kPa | 600.77
308.32 K, 19998 kPa | 607.63
308.32 K, 24997 kPa | 613.87
308.32 K, 30005 kPa | 619.62
308.32 K, 34988 kPa | 624.91
308.32 K, 40003 kPa | 629.89
313.2 K, 951 kPa | 569.89
313.2 K, 4993 kPa | 578.43
313.2 K, 9992 kPa | 587.58
313.2 K, 14986 kPa | 595.55
313.2 K, 19994 kPa | 602.7
313.2 K, 24994 kPa | 609.17
313.2 K, 29987 kPa | 615.08
313.2 K, 34991 kPa | 620.58
313.2 K, 40013 kPa | 625.7
318.21 K, 1034 kPa | 563.28
318.21 K, 4991 kPa | 572.22
318.21 K, 9993 kPa | 581.88
318.21 K, 15000 kPa | 590.28
318.21 K, 20002 kPa | 597.73
318.21 K, 24998 kPa | 604.47
318.21 K, 29993 kPa | 610.61
318.21 K, 34995 kPa | 616.28
318.21 K, 39991 kPa | 621.54
323.22 K, 1130 kPa | 556.5
323.22 K, 5015 kPa | 565.89
323.22 K, 10019 kPa | 576.14
323.22 K, 15017 kPa | 584.94
323.22 K, 20010 kPa | 592.7
323.22 K, 25016 kPa | 599.69
323.22 K, 30006 kPa | 606.04
323.22 K, 34990 kPa | 611.88
328.22 K, 1213 kPa | 549.51
328.22 K, 4997 kPa | 559.34
328.22 K, 10001 kPa | 570.24

Conditions | vapor or sublimation pressure [kPa]
285.97 K | 206.58
297.46 K | 297.04
307.88 K | 404.2
315.82 K | 503.41
324.78 K | 633
